This is an account of results in patent US9718781B2, “Methods and compounds for treating proliferative disorders and viral infections” (University College Dublin, National University of Ireland, …, priority 2012, dated 2017).

In one assay the target is T1, TPα (Homo sapiens, UniProt P21731).
T1 construct: expressed in transfected cells
T1 sequence (P21731 1-343): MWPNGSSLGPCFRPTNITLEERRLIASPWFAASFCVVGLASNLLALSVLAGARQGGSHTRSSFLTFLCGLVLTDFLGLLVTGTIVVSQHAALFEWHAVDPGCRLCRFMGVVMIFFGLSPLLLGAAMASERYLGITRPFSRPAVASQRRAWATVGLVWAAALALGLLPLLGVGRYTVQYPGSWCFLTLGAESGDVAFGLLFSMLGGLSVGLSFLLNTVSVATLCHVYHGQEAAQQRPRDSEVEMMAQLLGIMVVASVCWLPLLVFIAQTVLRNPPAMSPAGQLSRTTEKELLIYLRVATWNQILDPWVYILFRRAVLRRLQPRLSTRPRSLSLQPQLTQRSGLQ
The assay can be described thus: U46619-induced [Ca2+]i mobilization in HEK.TPα cells. The format is cell-based. To be noted: for remaining activity at 1 µM: antagonist 1 μM, read-out: Percentage of Control, TPα, 1 μM; for remaining activity at 1 µM / remaining activity at 10 µM: % of agonist-induced response in vehicle-treated cells; for remaining activity at 10 µM: antagonist 10 μM, read-out: Percentage of Control, TPα, 10 μM. The source says: (§1) An appropriate functional test for the evaluation of the agonistic and/or antagonistic potency of the compounds of the invention is the determination of calcium flux. Both TPα and TPβ are coupled to the G-protein Gαq. Therefore, stimulation of these receptors ultimately leads to a release of intracellular calcium ([Ca^2+]i) from intracellular stores. Consequently, the determination of [Ca^2+]i flux represents an appropriate functional test for the evaluation of the agonistic/antagonistic potency of compounds of the invention. Calcium can be measured using a molecule characterized by the covalent combination of a Ca^2+ chelating group and a fluorophore group. The Ca^2+ binding properties of these indicators are formed by the presence of a tetracarboxylic acid core as found for example in EGTA (Ethylene Glycol bis(2-aminoethyl)Tetraacetic Acid). Binding of Ca^2+ produces a wavelength shift in either the excitation or emission fluorescence spectra or a change in the emission intensity. Whereas the Ca^2+ binding to EGTA is pH dependent, recent dyes are designed from an EGTA derivative, BAPTA (1,2-Bis(2-Aminophenoxy)ethane-N,N,N′,N′-Tetraacetic Acid). Loading of these dyes inside cells commonly uses esterified forms (acetoxymethyl ester), which are able to cross the cell membranes and are subsequently hydrolyzed by esterases inside the cell.
(§2) Estimation of [Ca^2+]i flux is calculated from the fluorescence signal (F). For calibration, the maximal fluorescence (Fmax, Ca^2+-saturated form of the dye) as well as minimal fluorescence (Fmin, Ca^2+-free form of the dye) must be determined. These parameters are determined usually in situ after the experiment, for example by subsequent addition to the mixture of a cell-disrupting agent that releases all Ca^2+ such as Triton X100 and a potent Ca^2+-chelating agent such as EGTA. After subtraction of background fluorescence, [Ca^2+]; flux can be calculated for non-ratiometric indicators.
(§3) Intracellular [Ca^2+]; fluxes were measured using a fluorescence plate reader following a modified protocol of Kassack et al., ‘Quantitative comparison of functional screening by measuring intracellular Ca^2+ with radioligand binding at recombinant human dopamine receptors’, AAPS Pharmsci, 2002, 4(4); 102-111, in cell lines (e.g. HEK293 or other cell type) endogenously-expressing or over-expressing either TPα, TPβ or any other receptor or protein to be screened.
(§4) By way of example, HEK 293 cells which have been grown for 3-4 days in normal growth media (minimum essential media containing 10% FBS and 2 mmol/1 L-glutamine), under normal growth conditions (37° C., in humidified 5% CO2 atmosphere) are washed and harvested in KREBs-HEPES buffer (118 mM NaCl, 4.7 mM KCl, 1.2 mM MgSO4, 1.2 mM KH2PO4, 4.2 mM NaHCO3, 11.7 mM D-glucose, 1.3 mM CaCl2, 10 mM HEPES, pH 7.4). Cells are then incubated with 3 μM Fluo-4 in KREBs-HEPES buffer containing 1% Pluoronic F-127, for 1 hr at 25° C. with agitation. Then, cells are washed in KREBs-HEPES buffer containing 0.5% BSA and re-suspended at a final concentration of 3×10^5 cells/ml. Approx. 5.4×10^4 cells per well are plated in a 96-well plate and pre-incubated with test compounds for 10 m prior to measuring the fluorescence intensity at 520 nm for 25 seconds at 1 s intervals to monitor baseline using the Fluoroskan Ascent. Agonist (e.g., 1 μM U46619) is injected into separate wells by the automatic pipettor and fluorescence intensity is monitored at 520 nm for 75 seconds at 1 s intervals. Thereafter, Triton X100 and EGTA are added sequentially where Fmax refers to maximal fluorescence intensity measured after permeabilization of the cells with 2% Triton X100 and Fmin refers to fluorescence intensity measured after addition of 1 mM EGTA.
(§5) The dye Fluo-4 has its excitation peak at 480 nm, in the visible spectra, which spare cells to be damaged by UV (340-360 nm) stimulation and reduces auto-fluorescence of cells. […]

The target of another assay is T2, TPβ (Homo sapiens, UniProt P21731).
T2 construct: expressed in transfected cells
The assay can be described thus: U46619-induced [Ca2+]i mobilization in HEK.TPβ cells. The class given is cell-based. The settings on record: 1 μM U46619; for remaining activity at 1 µM / activity class in HEK.TPβ cells: antagonist 1 μM; for remaining activity at 1 µM / remaining activity at 10 µM: % of agonist-induced response in vehicle-treated cells; for remaining activity at 1 µM: read-out: Percentage of Control, TPβ, 1 μM; for remaining activity at 10 µM: antagonist 10 μM, read-out: Percentage of Control, TPβ, 10 μM.
Description: as §1, §2, §3, §4, §5

Structures are written as SMILES.

T2 sequence (P21731 1-407 isoform P21731-2): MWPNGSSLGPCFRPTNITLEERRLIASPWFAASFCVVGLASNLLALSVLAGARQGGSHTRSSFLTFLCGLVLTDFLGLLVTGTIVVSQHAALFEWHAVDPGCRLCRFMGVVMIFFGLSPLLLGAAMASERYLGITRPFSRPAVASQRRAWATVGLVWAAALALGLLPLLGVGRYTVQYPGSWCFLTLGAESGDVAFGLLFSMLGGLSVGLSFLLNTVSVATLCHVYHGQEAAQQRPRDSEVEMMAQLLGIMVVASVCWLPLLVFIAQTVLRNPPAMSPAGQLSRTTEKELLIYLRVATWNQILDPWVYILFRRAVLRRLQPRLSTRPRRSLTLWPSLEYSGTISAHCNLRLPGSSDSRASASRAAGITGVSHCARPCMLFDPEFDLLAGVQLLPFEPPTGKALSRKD

As to `Cc1ccc(Nc2ccc([N+](=O)[O-])cc2S(=O)(=O)NC(=O)NC(C)(C)C)cc1` [BM573, reference compound], at TPα (1 μM U46619), the remaining activity at 1 µM was 48.5 ± 1.77% and the remaining activity at 10 µM stood at 12 ± 0.76%. Further, on TPβ, the remaining activity at 1 µM was 23.8 ± 0.68% and the remaining activity at 10 µM turned out to be 9.9 ± 1.8%.

Regarding `CCCCCNC(=O)NS(=O)(=O)c1cc([N+](=O)[O-])ccc1Oc1cccc(-c2ccc(C)cc2)c1` [IX], the IC50 on TPα (HEK.TPα cells, 1 μM U46619, Table 2, read-out: IC50 data for U46619-mediated [Ca2+]i mobilization, TPα) amounted to 11.6 µM; at TPβ (HEK.TPβ cells, Table 2, read-out: IC50 data for U46619-mediated [Ca2+]i mobilization, TPβ), 1.54 µM. At TPα (IC50 TPα/IC50 TPβ), the “TPα:TPβ Selectivity Ratio” value is recorded as 7.5.

With `COc1ccc(-c2cccc(Oc3ccc(N)cc3S(=O)(=O)NC(=O)NC(C)(C)C)c2)cc1` [NTP1, 5-amino-N-(tert-butylcarbamoyl)-2-((4′-methoxy-[1,1′-biphenyl]-3-yl)oxy)benzene-sulfonamide], on TPα (1 μM U46619), the remaining activity at 1 µM was 77.8 ± 8.71% and the remaining activity at 10 µM was found to be 50.2 ± 6.39%. Besides, on TPβ, the remaining activity at 1 µM was 101 ± 4.75% and the remaining activity at 10 µM was determined as 102 ± 4.15%.

With `COc1ccc(-c2cccc(Oc3ccc(C(=O)N(C)C)cc3S(=O)(=O)NC(=O)NC(C)(C)C)c2)cc1` [NTP2, 3-(N-(tert-butylcarbamoyl)sulfamoyl)-4-((4′-methoxy-[1,1′-biphenyl]-3-yl)oxy)-N,N-dimethylbenzamide], the remaining activity at 1 µM on TPα (1 μM U46619) was 85 ± 2.71%; at TPβ, 102 ± 3.59%. For the same compound, the remaining activity at 10 µM at TPα (1 μM U46619) was 54.9 ± 3.32%; at TPβ it was 90.1 ± 2.78%.

Regarding `COc1ccc(-c2cccc(Oc3ccc(C(F)(F)F)cc3S(=O)(=O)NC(=O)NC(C)(C)C)c2)cc1` [NTP3, N-(tert-butylcarbamoyl)-2-((4′-methoxy-[1,1′-biphenyl]-3-yl)oxy)-5-(trifluoromethyl)benzenesulfonamide], on TPα (1 μM U46619), the remaining activity at 1 µM amounted to 69.6 ± 5.35% and the remaining activity at 10 µM worked out at 41.6 ± 5.45%. Also, at TPβ, the “activity class in HEK.TPβ cells” value was “ACTIVE”, the remaining activity at 1 µM is 46 ± 5.92% and the remaining activity at 10 µM came to 14.8 ± 2.44%.

For `COc1ccc(-c2cccc(Oc3ccc(C(=O)O)cc3S(=O)(=O)NC(=O)NC(C)(C)C)c2)cc1` [NTP5, 3-(N-(tert-butylcarbamoyl)sulfamoyl)-4-((4′-methoxy-[1,1′-biphenyl]-3-yl)oxy)benzoic acid], at TPα (1 μM U46619), the remaining activity at 1 µM was 98.7 ± 9.29% and the remaining activity at 10 µM is 61.7 ± 1.42%. In addition, on TPβ, the remaining activity at 1 µM was determined as 88.3 ± 5.27% and the remaining activity at 10 µM came to 72 ± 3.87%.

Turning to `CCn1cc(-c2ccc(Oc3cccc(-c4ccc(OC)cc4)c3)c(S(=O)(=O)NC(=O)NC(C)(C)C)c2)cn1` [NTP6, N-(tert-butylcarbamoyl)-5-(1-ethyl-1H-pyrazol-4-yl)-2-((4′-methoxy-[1,1′-biphenyl]-3-yl)oxy)benzenesulfonamide], the remaining activity at 1 µM on TPα (1 μM U46619) turned out to be 88.6 ± 14.5%; at TPβ, 94.4 ± 7.7%. In addition, the remaining activity at 10 µM at TPα (1 μM U46619) is 45.1 ± 5.75%; on TPβ it was 57.4 ± 6.86%.

On to `COc1ccc(-c2cccc(Oc3ccc(Br)cc3S(=O)(=O)NC(=O)NC(C)(C)C)c2)cc1` [NTP7, 5-bromo-N-(tert-butylcarbamoyl)-2-((4′-methoxy-[1,1′-biphenyl]-3-yl)oxy)benzenesulfonamide], for which, at TPα (1 μM U46619), the remaining activity at 1 µM was determined as 61.5 ± 7.7% and the remaining activity at 10 µM was 32.5 ± 3.95%. Moreover, at TPβ, the “activity class in HEK.TPβ cells” value was “ACTIVE”, the remaining activity at 1 µM amounted to 49 ± 4.41% and the remaining activity at 10 µM was 12.2 ± 1.93%.

In the case of `COc1ccc(-c2cccc(Oc3ccc(F)cc3S(=O)(=O)NC(=O)NC(C)(C)C)c2)cc1` [NTP8, N-(tert-butylcarbamoyl)-5-fluoro-2-((4′-methoxy-[1,1′-biphenyl]-3-yl)oxy)benzene-sulfonamide], on TPα (1 μM U46619), the remaining activity at 1 µM came out at 68 ± 5.05% and the remaining activity at 10 µM came out at 49.9 ± 6.91%. Moreover, on TPβ, the “activity class in HEK.TPβ cells” value is on record as “ACTIVE”, the remaining activity at 1 µM is 59.4 ± 1.85% and the remaining activity at 10 µM was found to be 14.6 ± 2.72%.
